What was measured:
[1] = Stability of compounds in human plasma; assay type: in vitro ADME; details: 37°C, 5 µmol/L
Procedure: • (1) 199 µL of human plasma was added to the culture plate of each cell. The culture plate was preheated to 37°C, and kept at this temperature for 15 min. • (2) After preincubation, 1 µL of 1 mmol/L each test compound and 1 µL of 1 mmol/L control compound were added to 199 µL of plasma, so that a final concentration of each test compound was 5 µmol/L and that of the control compound was 5 µmol/L. The final concentration of the organic solvent was 0.5%. The experiment would be duplicated twice. • (3) Reaction samples were incubated at 37°C. • (4) The reaction was stopped by adding 600 µL of cold methanol containing the internal standard at 0, 1, 2, 6, and 24 h. Each sample was vortex mixed for 10 min, and then centrifuged at 3,220 g for 30 min to precipitate the protein. […] Based on the signal response and peak shapes of liquid chromatography-mass spectrometry (LC-MS), the supernatant would be diluted with ultrapure water.
All calculations were performed using Microsoft Excel. The peak area ratio was determined from the chromatogram of extracted ions. The percentage of compounds remaining at each time point was calculated as per the following formula: Residual percentagetmin (%) = peak area ratiotmin /peak areat0 × 100 [formula]

CYP2D6 = CYP2D6 (Homo sapiens, UniProt P10635); test: CYP inhibition in human hepatomicrosomes, CYP2D6
SK-BR-3 = test: Inhibition of proliferation of SK-BR-3 cells by compounds (CellTiter-Glo, 72 h); assay type: cell-based; details: Homo sapiens, SK-BR-3, 72 h, SK-BR-3, 72 h incubation
Outline: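 SK-BR-3 cells plated in 384-well format, allowed to adhere, then exposed to compound (0.33% DMSO final) for 72 h at 37 °C, 5% CO2. Viability read by CellTiter-Glo luminescence; IC50 from four-parameter nonlinear fit.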

Sequence of CYP2D6 (P10635 whole entry): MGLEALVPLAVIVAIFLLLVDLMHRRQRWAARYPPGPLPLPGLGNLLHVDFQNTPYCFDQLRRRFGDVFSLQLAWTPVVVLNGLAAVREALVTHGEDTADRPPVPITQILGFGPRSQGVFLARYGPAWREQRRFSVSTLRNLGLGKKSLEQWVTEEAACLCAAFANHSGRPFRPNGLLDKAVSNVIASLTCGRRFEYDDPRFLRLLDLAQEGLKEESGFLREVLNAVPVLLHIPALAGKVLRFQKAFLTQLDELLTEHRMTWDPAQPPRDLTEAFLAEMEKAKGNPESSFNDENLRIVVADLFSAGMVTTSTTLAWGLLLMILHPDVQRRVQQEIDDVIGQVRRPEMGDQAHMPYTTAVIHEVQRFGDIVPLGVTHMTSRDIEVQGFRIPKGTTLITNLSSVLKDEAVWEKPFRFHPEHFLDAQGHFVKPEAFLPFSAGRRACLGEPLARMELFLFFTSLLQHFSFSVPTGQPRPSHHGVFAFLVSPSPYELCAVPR

SMILES: CC[C@@]1(O)C(=O)OCc2c1cc1n(c2=O)Cc2c-1nc1cc(F)c(C)c3c1c2[C@@H](NC(=O)CO)CC3 [Dxd]
- Residual percentage (%) ([1]; 0 h): 100.00%
- remaining at 1 h, 5 µM ([1]; 1 h, read-out: Residual percentage (%)): 89.4%
- remaining at 2 h, 5 µM ([1]; 2 h, read-out: Residual percentage (%)): 86.8%
- remaining at 6 h, 5 µM ([1]; 6 h, read-out: Residual percentage (%)): 86.4%
- remaining at 24 h, 5 µM ([1]; 24 h, read-out: Residual percentage (%)): 82.3%
- IC50 (CYP2D6): > 30000 nM
- IC50 (SK-BR-3): 11 nM
